These results are taken from patent publication US20240360157A1, “TYK2 INHIBITORS” (BIOGEN MA INC., priority 2021, published 2024).

As usually defined, the IC50 is the concentration needed to halve the response being measured.

Structures can show the parent of a compound that is named as a salt.

What all share (format): biochemical
Test [1] has as its target human JAK3 catalytic kinase (JH1) domain (Homo sapiens (Human), UniProt P52333). The experiment in a line: ADP-Glo Kinase Assay, recombinant JAK3 catalytic kinase (JH1) domain. Conditions: recombinant JH1 domain 0.3 nM, 4 μM ATP, JAK3-974 peptide, mean, read-out: JAK3 biochem IC50 (nM) Mean. The gist of the method:
(§1)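 Reactions contain 50 μM peptide and run 100 minutes, with enzyme at 4, 0.2, 0.3 and 2 nM for JAK1, JAK2, JAK3 and TYK2. Generated ADP is read by luminescence; IC50 derives from normalized dose-response curves.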

In test [2] the target is human TYK2 catalytic kinase (JH1) domain (Homo sapiens (Human), UniProt P29597). The experiment in a line: ADP-Glo Kinase Assay, recombinant TYK2 catalytic kinase (JH1) domain. Conditions: recombinant JH1 domain 2 nM, 10 μM ATP, JAK3-974 peptide, mean, read-out: TYK2 biochem IC50 (nM) Mean. The gist of the method: as §1
Sequence of human TYK2 catalytic kinase (JH1) domain (P29597 897-1176): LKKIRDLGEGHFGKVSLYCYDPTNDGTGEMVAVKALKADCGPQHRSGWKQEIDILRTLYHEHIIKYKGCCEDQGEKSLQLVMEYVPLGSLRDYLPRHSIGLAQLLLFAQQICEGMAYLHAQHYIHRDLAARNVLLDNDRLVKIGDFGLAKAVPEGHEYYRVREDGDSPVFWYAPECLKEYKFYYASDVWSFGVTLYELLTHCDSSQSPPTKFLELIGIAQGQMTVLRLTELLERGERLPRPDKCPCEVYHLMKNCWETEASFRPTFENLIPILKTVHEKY
The target of test [3] is human JAK1 catalytic kinase (JH1) domain (Homo sapiens (Human), UniProt P23458). The experiment in a line: ADP-Glo Kinase Assay, recombinant JAK1 catalytic kinase (JH1) domain. The settings on record: recombinant JH1 domain 4 nM, 35 μM ATP, JAK3-342 peptide, mean, read-out: JAK1 biochem IC50 (nM) Mean. In short, it runs like this:
as §1
On the technique in general: ADP-Glo first removes unused ATP, then detects ADP through luciferase.

The target in test [4] is human JAK2 catalytic kinase (JH1) domain (Homo sapiens (Human), UniProt O60674). Briefly: ADP-Glo Kinase Assay, recombinant JAK2 catalytic kinase (JH1) domain. The settings on record: recombinant JH1 domain 0.2 nM, 15 μM ATP, JAK3-974 peptide, mean, read-out: JAK2 biochem IC50 (nM) Mean. The gist of the method:
as §1

Sequence of human JAK1 catalytic kinase (JH1) domain (P23458 875-1153): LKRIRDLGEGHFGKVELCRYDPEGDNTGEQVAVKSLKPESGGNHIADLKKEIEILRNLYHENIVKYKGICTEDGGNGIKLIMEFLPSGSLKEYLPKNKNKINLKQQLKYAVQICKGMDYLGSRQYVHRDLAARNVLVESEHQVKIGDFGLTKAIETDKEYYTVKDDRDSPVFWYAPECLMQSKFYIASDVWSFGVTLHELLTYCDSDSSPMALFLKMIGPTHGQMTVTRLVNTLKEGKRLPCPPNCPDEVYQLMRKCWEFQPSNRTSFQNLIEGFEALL
Sequence of human JAK2 catalytic kinase (JH1) domain (O60674 849-1124): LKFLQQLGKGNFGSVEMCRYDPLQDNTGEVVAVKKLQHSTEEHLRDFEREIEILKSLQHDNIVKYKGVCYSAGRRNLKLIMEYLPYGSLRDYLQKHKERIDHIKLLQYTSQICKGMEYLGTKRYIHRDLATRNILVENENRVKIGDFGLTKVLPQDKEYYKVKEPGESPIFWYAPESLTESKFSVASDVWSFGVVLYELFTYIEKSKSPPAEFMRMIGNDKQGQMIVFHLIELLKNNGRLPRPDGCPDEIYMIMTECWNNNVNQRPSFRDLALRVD
Sequence of human JAK3 catalytic kinase (JH1) domain (P52333 822-1111): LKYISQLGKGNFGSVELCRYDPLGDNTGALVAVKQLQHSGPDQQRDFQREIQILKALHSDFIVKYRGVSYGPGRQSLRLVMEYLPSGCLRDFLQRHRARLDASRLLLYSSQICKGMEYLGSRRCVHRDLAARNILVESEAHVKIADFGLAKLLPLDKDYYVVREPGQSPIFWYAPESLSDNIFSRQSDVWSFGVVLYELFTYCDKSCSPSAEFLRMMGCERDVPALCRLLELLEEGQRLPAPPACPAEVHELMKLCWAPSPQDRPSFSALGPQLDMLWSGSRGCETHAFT

As to `CN1CCOC(c2nc3c(N4CC5CCC(C4)N5C(=O)[C@@H]4C[C@H]4F)ccnc3[nH]2)C1` (stereo partly drawn) [Example 218, ((1S,2R)-2-fluorocyclopropyl)(3-(2-(4-methylmorpholin-2-yl)-3H-imidazo[4,5-b]pyridin-7-yl)-3,8-diazabicyclo[3.2.1]octan-8-yl)methanone], the IC50 was 10000 nM in test [1], 783 nM in test [2], 2940 nM in test [3] and 10000 nM in test [4].

`O=C([C@@H]1C[C@H]1F)N1C2CCC1CN(c1ccnn3cc(-c4ccnnc4)cc13)C2` [Example 109, ((1S,2R)-2-fluorocyclopropyl)(3-(6-(pyridazin-4-yl)pyrrolo[1,2-b]pyridazin-4-yl)-3,8-diazabicyclo[3.2.1]octan-8-yl)methanone]: the IC50 in test [1] came to 847 nM; in test [2], 3.2 nM; in test [3], 38 nM; in test [4] it was 45 nM.

For the molecule `O=C([C@@H]1C[C@H]1F)N1C2CCC1CN(c1ccnn3cc(-c4ccnc(OC(F)F)c4)cc13)C2` [Example 111, (3-(6-(2-(difluoromethoxy)pyridin-4-yl)pyrrolo[1,2-b]pyridazin-4-yl)-3,8-diazabicyclo[3.2.1]octan-8-yl)((1S,2R)-2-fluorocyclopropyl)methanone], the IC50 in test [1] stood at 981 nM; in test [2], 3.6 nM; in test [3], 62 nM; in test [4], 57 nM.

For `Cn1cc(-c2cc3c(N4CC5CCC(C4)N5S(=O)(=O)C4CC4)ccnc3[nH]2)cn1` [Example 193], the IC50 in test [1] stood at 199 nM; in test [2], 10.1 nM; in test [3], 200 nM; in test [4], 36 nM.

`Cn1cc(-c2cc3nccc(N4CC5CCC(C4)N5C(=O)[C@@H]4C[C@H]4F)n3n2)cn1` [Example 251, ((1S,2R)-2-fluorocyclopropyl)(3-(2-(1-methyl-1H-pyrazol-4-yl)pyrazolo[1,5-a]pyrimidin-7-yl)-3,8-diazabicyclo[3.2.1]octan-8-yl)methanone]: the IC50 stood at 2920 nM in test [1], 81 nM in test [2], 322 nM in test [3] and 472 nM in test [4].

`O=C(C1CC(F)(F)C1)N1C2CCC1CN(c1ncnn3cc(-c4cnn(C(F)F)c4)cc13)C2` [Example 55, (3,3-difluorocyclobutyl)(3-(6-(1-(difluoromethyl)-1H-pyrazol-4-yl)pyrrolo[2,1-f][1,2,4]triazin-4-yl)-3,8-diazabicyclo[3.2.1]octan-8-yl)methanone]: the concentration for half-maximal inhibition (IC50) in test [1] amounted to 8580 nM; in test [2], 290 nM; in test [3] it was 2790 nM; in test [4], 7180 nM.

With `Cn1cc(-c2cc3c(N4CC5CCC(C4)N5S(=O)(=O)C4CC4)ncnn3c2)cn1` [Example 187, 4-(8-(cyclopropylsulfonyl)-3,8-diazabicyclo[3.2.1]octan-3-yl)-6-(1-methyl-1H-pyrazol-4-yl)pyrrolo[2,1-f][1,2,4]triazine], the IC50 turned out to be 9430 nM in test [1], 643 nM in test [2], 9660 nM in test [3] and 5410 nM in test [4].

Turning to `O=C([C@@H]1C[C@H]1F)N1C2CCC1CN(c1ccnn3cc(-c4ccc(F)nc4)cc13)C2` [Example 169], the IC50 stood at 288 nM in test [1], 1.8 nM in test [2], 47 nM in test [3] and 49 nM in test [4].

Consider `Cn1cc(-c2cc3c(N4CC5CCC(C4)N5C(=O)[C@H]4C[C@H]4C#N)ncnn3c2)cn1` (single isomer, unassigned) [Example 85], for which the IC50 in test [1] was found to be 4450 nM; in test [2] it was 751 nM; in test [3], 3310 nM; in test [4], 10000 nM.

For the molecule `CN(C)c1cc(-c2cc3c(N4CC5CCC(C4)N5C(=O)[C@@H]4C[C@H]4F)ccnn3c2)cnn1` [Example 138, (3-(6-(6-(dimethylamino)pyridazin-4-yl)pyrrolo[1,2-b]pyridazin-4-yl)-3,8-diazabicyclo[3.2.1]octan-8-yl)((1S,2R)-2-fluorocyclopropyl)methanone], the IC50 came out at 3930 nM in test [1], 13.8 nM in test [2], 57 nM in test [3] and 395 nM in test [4].

For `Cc1ccc(-c2cc3c(N4CC5CCC(C4)N5C(=O)[C@@H]4C[C@H]4F)ncnc3[nH]2)cn1` [Example 224, ((1S,2R)-2-fluorocyclopropyl)(3-(6-(6-methylpyridin-3-yl)-7H-pyrrolo[2,3-d]pyrimidin-4-yl)-3,8-diazabicyclo[3.2.1]octan-8-yl)methanone], the IC50 in test [1] was found to be 1100 nM; in test [2] it was 19.2 nM; in test [3] it was 234 nM; in test [4] it was 462 nM.

`Cn1cc(-c2cc3c(N4CC5CCC(C4)N5C(=O)[C@@H]4C[C@H]4F)ccnn3c2)cc(F)c1=O` [Example 174]: the IC50 stood at 1600 nM in test [1], 6.6 nM in test [2], 149 nM in test [3] and 84 nM in test [4].

For the molecule `Cn1cc(-c2cc3c(N4CC5CCC(C4)N5C(=O)[C@@H]4C[C@H]4F)ccnn3c2)c(F)n1` [Example 118, (3-(6-(3-fluoro-1-methyl-1H-pyrazol-4-yl)pyrrolo[1,2-b]pyridazin-4-yl)-3,8-diazabicyclo[3.2.1]octan-8-yl)((1S,2R)-2-fluorocyclopropyl)methanone], the IC50 in test [1] stood at 502 nM; in test [2], 1.8 nM; in test [3] it was 92 nM; in test [4], 28 nM.

Turning to `O=C(N1C2CCC1CN(c1ncnn3cc(-c4cnn(C(F)F)c4)cc13)C2)C(F)(F)F` [Example 86, 1-(3-(6-(1-(difluoromethyl)-1H-pyrazol-4-yl)pyrrolo[2,1-f][1,2,4]triazin-4-yl)-3,8-diazabicyclo[3.2.1]octan-8-yl)-2,2,2-trifluoroethan-1-one], the IC50 in test [1] was 5090 nM; in test [2], 334 nM; in test [3], 1030 nM; in test [4], 6080 nM.

With `Cc1c(-c2cc3c(N4CC5CCC(C4)N5C(=O)C4CC4)ncnn3c2)cnn1C` [Example 168], the IC50 in test [1] was determined as 7690 nM; in test [2], 317 nM; in test [3] it was 5470 nM; in test [4] it was 7850 nM.

`O=C([C@H]1CC1(F)F)N1C2CCC1CN(c1ncnn3cc(-c4cnn(C(F)F)c4)cc13)C2` (single isomer, unassigned) [Example 77]: the IC50 was 8880 nM in test [1], 46.3 nM in test [2], 1290 nM in test [3] and 1410 nM in test [4].

As to `COc1cc(-c2cc3c(N4CC5CCC(C4)N5C(=O)[C@@H]4C[C@H]4F)ncnc3[nH]2)ccn1` [Example 231, ((1S,2R)-2-fluorocyclopropyl)(3-(6-(2-methoxypyridin-4-yl)-7H-pyrrolo[2,3-d]pyrimidin-4-yl)-3,8-diazabicyclo[3.2.1]octan-8-yl)methanone], the IC50 in test [1] worked out at 877 nM; in test [2], 12.4 nM; in test [3], 115 nM; in test [4], 307 nM.

For the molecule `O=C(C1CC(O)(C(F)(F)F)C1)N1C2CCC1CN(c1ncnn3cc(-c4cnn(C(F)F)c4)cc13)C2` (stereo not drawn) [Example 36, (3-(6-(1-(difluoromethyl)-1H-pyrazol-4-yl)pyrrolo[2,1-f][1,2,4]triazin-4-yl)-3,8-diazabicyclo[3.2.1]octan-8-yl)(3-hydroxy-3-(trifluoromethyl)cyclobutyl)methanone trifluoroacetate], the IC50 was found to be 5840 nM in test [1], 968 nM in test [2], 2200 nM in test [3] and 7490 nM in test [4].
